Reference: ChEMBL document CHEMBL4261619, “Sentulic acid isolated from Sandoricum koetjape Merr attenuates lipopolysaccharide and interferon gamma co-stimulated nitric oxide production in murine macrophage RAW264 cells” (Bioorg Med Chem Lett, 2018)
Calls of active or inactive are those of the source. The calls are words filed in the database; no cut-off is given here.

Assays:
Assay type in all cases: cell-based
[1] = target: T1, Toll-like receptor 4 (Mus musculus) (UniProt Q9QUK6); experiment: Inhibition of LPS binding to TLR4 in IFNgamma-stimulated mouse RAW264.7 cells assessed as suppression of COX2 mRNA expression at 100 uM by qRT-PCR analysis
T1 sequence (whole entry): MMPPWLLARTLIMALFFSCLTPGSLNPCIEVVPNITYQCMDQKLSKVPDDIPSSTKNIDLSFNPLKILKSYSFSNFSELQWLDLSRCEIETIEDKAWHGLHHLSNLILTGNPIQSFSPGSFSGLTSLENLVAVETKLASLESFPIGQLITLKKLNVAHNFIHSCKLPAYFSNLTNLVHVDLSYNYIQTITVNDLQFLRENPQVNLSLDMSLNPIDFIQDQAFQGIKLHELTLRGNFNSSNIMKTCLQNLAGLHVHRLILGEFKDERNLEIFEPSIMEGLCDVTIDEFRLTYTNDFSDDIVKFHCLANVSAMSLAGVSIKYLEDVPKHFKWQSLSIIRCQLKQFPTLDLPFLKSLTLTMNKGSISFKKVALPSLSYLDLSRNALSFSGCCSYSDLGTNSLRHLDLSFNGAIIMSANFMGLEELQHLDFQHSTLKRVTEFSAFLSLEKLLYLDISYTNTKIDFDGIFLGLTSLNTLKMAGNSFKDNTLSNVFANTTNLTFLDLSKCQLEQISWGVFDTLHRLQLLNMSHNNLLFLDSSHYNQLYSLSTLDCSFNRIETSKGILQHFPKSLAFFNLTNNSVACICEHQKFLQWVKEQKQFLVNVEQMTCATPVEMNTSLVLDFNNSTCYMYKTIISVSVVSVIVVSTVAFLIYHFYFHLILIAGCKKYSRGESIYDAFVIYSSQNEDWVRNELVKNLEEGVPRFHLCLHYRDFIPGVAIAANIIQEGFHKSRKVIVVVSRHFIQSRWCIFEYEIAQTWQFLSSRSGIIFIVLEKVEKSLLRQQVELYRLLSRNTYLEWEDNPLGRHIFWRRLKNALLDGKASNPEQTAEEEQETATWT

[2] = target: T1, Toll-like receptor 4 (Mus musculus); experiment: Inhibition of LPS binding to TLR4 in IFNgamma-stimulated mouse RAW264.7 cells assessed as effect on ratio of phosphorylated ERK to total ERK at 100 uM measured after 30 mins by Western blot analysis relative to beta-actin (reference value: 0.8)
[3] = target: T1, Toll-like receptor 4 (Mus musculus); experiment: Inhibition of LPS binding to TLR4 in IFNgamma-stimulated mouse RAW264.7 cells assessed as suppression of IL6 mRNA expression at 100 uM by qRT-PCR analysis
[4] = target: T1, Toll-like receptor 4 (Mus musculus); experiment: Inhibition of LPS binding to TLR4 in IFNgamma-stimulated mouse RAW264.7 cells assessed as effect on ratio of phosphorylated TAK1 to total TAK1 at 100 uM measured after 30 mins by Western blot analysis relative to beta-actin (reference value: 3.7)
[5] = target: T1, Toll-like receptor 4 (Mus musculus); experiment: Inhibition of LPS binding to TLR4 in IFNgamma-stimulated mouse RAW264.7 cells assessed as effect on ratio of phosphorylated JNK to total JNK at 100 uM measured after 60 mins by Western blot analysis relative to beta-actin (reference value: 1.4)
[6] = target: T1, Toll-like receptor 4 (Mus musculus); experiment: Inhibition of LPS binding to TLR4 in IFNgamma-stimulated mouse RAW264.7 cells assessed as effect on ratio of phosphorylated TAK1 to total TAK1 at 100 uM measured after 60 mins by Western blot analysis relative to beta-actin (reference value: 3.1)
[7] = target: T1, Toll-like receptor 4 (Mus musculus); experiment: Inhibition of LPS binding to TLR4 in IFNgamma-stimulated mouse RAW264.7 cells assessed as effect on ratio of phosphorylated NFkappaB to total NFkappaB at 100 uM measured after 30 mins by Western blot analysis relative to beta-actin (reference value: 2.7)
[8] = target: T1, Toll-like receptor 4 (Mus musculus); experiment: Inhibition of LPS binding to TLR4 in IFNgamma-stimulated mouse RAW264.7 cells assessed as suppression of NFkappaB nuclear translocation
[9] = target: T1, Toll-like receptor 4 (Mus musculus); experiment: Inhibition of LPS binding to TLR4 in IFNgamma-stimulated mouse RAW264.7 cells assessed as effect on ratio of phosphorylated AKT to total AKT at 100 uM measured after 30 mins by Western blot analysis relative to beta-actin (reference value: 1.4)
[10] = target: T2, Nuclear factor erythroid 2-related factor 2 (Mus musculus) (UniProt Q60795); experiment: Induction of NRF2-ARE mediated HO-1 expression in mouse RAW264.7 cells at 100 uM after 2 hrs by Western blot analysis
T2 sequence (whole entry): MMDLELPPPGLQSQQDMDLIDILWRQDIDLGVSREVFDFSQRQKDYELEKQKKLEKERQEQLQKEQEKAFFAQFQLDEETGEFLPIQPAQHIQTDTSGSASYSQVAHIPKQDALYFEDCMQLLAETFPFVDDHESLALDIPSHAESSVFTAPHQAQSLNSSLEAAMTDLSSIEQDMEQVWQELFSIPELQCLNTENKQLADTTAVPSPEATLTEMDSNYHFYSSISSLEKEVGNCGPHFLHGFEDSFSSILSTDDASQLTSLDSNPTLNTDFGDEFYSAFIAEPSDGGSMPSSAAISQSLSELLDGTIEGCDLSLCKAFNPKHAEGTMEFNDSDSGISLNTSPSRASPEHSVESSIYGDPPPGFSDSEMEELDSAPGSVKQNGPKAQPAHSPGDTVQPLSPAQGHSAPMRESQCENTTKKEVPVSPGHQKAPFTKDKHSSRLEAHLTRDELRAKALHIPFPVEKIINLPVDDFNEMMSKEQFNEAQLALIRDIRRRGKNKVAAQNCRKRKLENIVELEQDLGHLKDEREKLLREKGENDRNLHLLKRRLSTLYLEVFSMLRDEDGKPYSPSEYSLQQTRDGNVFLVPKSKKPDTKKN

[11] = target: T1, Toll-like receptor 4 (Mus musculus); experiment: Inhibition of LPS binding to TLR4 in IFNgamma-stimulated mouse RAW264.7 cells assessed as effect on ratio of phosphorylated JNK to total JNK at 100 uM measured after 120 mins by Western blot analysis relative to beta-actin (reference value: 1)
[12] = target: T1, Toll-like receptor 4 (Mus musculus); experiment: Inhibition of LPS binding to TLR4 in IFNgamma-stimulated mouse RAW264.7 cells assessed as effect on ratio of phosphorylated NFkappaB to total NFkappaB at 100 uM measured after 120 mins by Western blot analysis relative to beta-actin (reference value: 1.2)
[13] = tested on: RAW264.7; experiment: Inhibition of IFNgamma binding to IFNGR in LPS-stimulated mouse RAW264.7 cells assessed as effect on ratio of phosphorylated Stat1 to total Stat1 at 100 uM measured after 30 mins by Western blot analysis relative to beta-actin (reference value: 1.9)
[14] = target: T1, Toll-like receptor 4 (Mus musculus); experiment: Inhibition of LPS binding to TLR4 in IFNgamma-stimulated mouse RAW264.7 cells assessed as effect on ratio of phosphorylated AKT to total AKT at 100 uM measured after 15 mins by Western blot analysis relative to beta-actin (reference value: 1.2)

- inhibition [1]: inactive
- fold change (FC) [2]: 0.7
- inhibition [3]: Active
- fold change (FC) [4]: 0.6
- fold change (FC) [5]: 1.1
- fold change (FC) [6]: 1
- fold change (FC) [7]: 1.6
- inhibition [8]: Active
- fold change (FC) [9]: 1.2
- Activity [10]: inactive
- fold change (FC) [11]: 1.1
- fold change (FC) [12]: 1
- fold change (FC) [14]: 1
Compound: C=C(C)[C@@H]1CC[C@]2(C)[C@H](CC=C3[C@@H]4CC(C)(C)CC[C@]4(C)CC[C@]32C(=O)O)[C@@]1(C)CCC(=O)O
- fold change (FC) [13]: 1.2
